Experimental data published in paper PMC9688159 (Cancers, 2022).
Where two headings read alike, the source gives them in different places. Square brackets hold non-standard residues; d marks the D form. Peptide text beside a SMILES is read from it. pGlu = O=C1CC[C@@H](C(=O)O)N1

Columns and labels:
BxPC-3 cells [1] = assay: cell viability (MTS); assay type: cell-based, human
Excerpt: (§1) Pancreatic carcinoma cell lines, PANC-1 (ACC 783), BxPC-3 (ACC 760), and Capan-1 (ACC 244), were obtained from DSMZ (Braunschweig, Germany). Normal human fibroblasts (NHF; 106-05A) were purchased from Sigma-Aldrich (Poznan, Poland). PANC-1 and NHF cells were maintained in DMEM containing 10% fetal bovine serum (FBS) and 1% antibiotic solution. BxPC-3 and Capan-1 cells were maintained in […] with 15% FBS and 1% penicillin/streptomycin solution. Cells were regularly tested for mycoplasma contamination.
(§2) In all experiments, cells were seeded in 96-well plates at a density of 4 × 10^3 (PANC-1, BxPC-3), 5 × 10^3 (Capan-1), and 2 × 10^3 (NHF) cells per well. Plates were incubated for 24 h at 37 °C.
(§3) To evaluate the effect of each compound on cell viability, cells were treated with different concentrations (0–60 µM) of tested compounds for 24, 48, and 72 h. Next, 20 µL of MTS solution was added to each well. Plates were incubated for 2 h at 37 °C. The absorbance was measured at 490 nm. Untreated cells served as a negative control. The number of viable cells is directly proportional to the intensity of color produced. Cell viability is expressed as a percentage of control cells.
(§4) Next, the medium was removed and a fresh medium containing tested compounds (at a concentration of 0–60 µM) was added. Plates were incubated for a further 24 h. Next, 20 µL of MTS solution was added to each well, and incubation was started (for 2 h at 37 °C). The absorbance was measured at 490 nm. Untreated cells served as a negative control.

Capan-1 cells = assay: cell viability (MTS); assay type: cell-based, human
Excerpt: as §1, §2, §3, §4

PANC-1 cells = assay: cell viability (MTS); assay type: cell-based, human
Excerpt: as §1, §2, §3, §4

[2] = test system: normal human fibroblasts (NHF); assay: cell viability (MTS); assay type: cell-based
Excerpt: as §1, §2, §3, §4

[3] = test system: PANC-1, BxPC-3 and NHF cells; assay: cell migration (scratch assay), statements for several cell lines together; assay type: cell-based, human; settings: for effect on cell migration: scratch assay, 0-40 µM, 24 and 48 h
Description: In all experiments, cells were seeded in 24-well plates at a density of 7 × 10^3 (PANC-1, BxPC-3) and 4 × 10^3 (NHF) cells per well and incubated for 48 h. Next, clear lines were made using a sterile 10 μL pipette tip. The medium was carefully removed, and 500 µL of fresh medium was added to the cells. For evaluation of the effect of each compound on cell proliferation, cells were treated with different concentrations (0–40 µM) of tested compounds. Phase-contrast microscopic pictures were taken at 24, 48, and 72 h, and the area of the wound was measured using Image J software (National Institute of Health, V1.5, Bethesda, […], USA). […] Phase-contrast microscopic pictures were taken at 6 and 24 h. The cell migration rate was calculated by measuring the area of the wound at each timepoint. The measurements were performed using ImageJ software. The medium was not changed during the experiment. Due to its inability to form a confluent monolayer, cell migration was not evaluated for Capan-1 cells.

[4] = test system: PANC-1, BxPC-3, Capan-1 cells and NHF; assay type: cell-based, human
Excerpt: as §1, §2, §3

DRD2 [5] = target: T1, DRD2 (Rattus norvegicus, UniProt P61169); assay: [3H]spiperone competition binding (DRD2 displacement), membrane homogenates; settings: 0.25 nM [3H]spiperone
T1 construct: from tissue; host or cells: Wistar rat brain and spinal cord membranes
Description: (§5) Rats were decapitated, and their brains and spinal cords were quickly removed. […] Briefly, the brains and spinal cords were homogenized in freshly prepared ice-cold Tris-HCl buffer (50 mM, pH 7.4) and centrifuged at 18,000 rpm for 20 min (4 °C). The resulting supernatant was removed while the pellet was taken up in the original volume of Tris-HCl buffer. The homogenate was further incubated at 37 °C for 30 min and again centrifuged. The received pellet was consequently suspended in 50 mM Tris-HCl (pH 7.4) buffer and kept until analysis at −80 °C.
(§6) In DRD1 displacement, the Tris-HCl buffer (pH 7.4) contained 120 mM NaCl, 5 mM KCl, 1 mM MgCl2, 2 mM CaCl2, and 1 µM mianserin. In DRD2 displacement, the Tris-HCl buffer (pH 7.4) was a mixture of 5 mM KCl, 2 mM MgCl2, 2 mM CaCl2, and 1 µM ketanserin. The incubation of tissue membranes was performed in the presence of the unlabeled ligands in increasing concentrations (10^−10–10^−5 M) at 35 °C for 45 min with [^3H]SCH-23390 and at 25 °C for 120 min with [^3H]spiperone. […] The experiment was performed in duplicate and repeated at least three times.
(§7) In the competition binding assays, the IC50 value was calculated using ‘one site competition’ fitting. The inhibitory activity was presented as a percentage of the specific binding observed.

DRD2 [6] = target: T1, DRD2; assay: ligand-stimulated [35S]GTPγS binding (G-protein activity), membrane homogenates; assay type: biochemical; settings: for maximal G-protein efficacy (Emax): basal activity = 100%; for EC50: logarithm of EC50, read-out: potency (log EC50) (converted)
BxPC-3 cells [7] = assay: cell migration (scratch assay); assay type: cell-based, human; settings: BxPC-3, after 24 h
Description: In all experiments, cells were seeded in 24-well plates at a density of 7 × 10^3 (PANC-1, BxPC-3) and 4 × 10^3 (NHF) cells per well and incubated for 48 h. Next, clear lines were made using a sterile 10 μL pipette tip. The medium was carefully removed, and 500 µL of fresh medium was added to the cells.
For evaluation of the effect of each compound on cell proliferation, cells were treated with different concentrations (0–40 µM) of tested compounds. Phase-contrast microscopic pictures were taken at 24, 48, and 72 h, and the area of the wound was measured using Image J software (National Institute of Health, V1.5, Bethesda, MA, USA).
The cell migration rate was calculated by measuring the area of the wound at each timepoint. The measurements were performed using ImageJ software. The medium was not changed during the experiment. Due to its inability to form a confluent monolayer, cell migration was not evaluated for Capan-1 cells.

DRD1 [8] = target: T2, DRD1 (Rattus norvegicus, UniProt P18901); settings: read-out: IC50, DRD1; rat spinal cord homogenates; 2 nM [3H]SCH-23390
Description: as §5, §6, §7

GRP-Rs = test system: GRP-Rs; parameters: method as in PMID 1850273; settings: compared with GRP; cited from earlier work
DRD1 [9] = target: T2, DRD1; assay: biochemical
Description: as §5, §6, §7

[10] = Homo sapiens, Fibroblast, NHF, 24 h
[11] = Homo sapiens, Fibroblast, NHF, 48 h
[12] = Homo sapiens, Fibroblast, NHF, 72 h
[13] = rat spinal cord membrane homogenates

T1 sequence (P61169 whole entry): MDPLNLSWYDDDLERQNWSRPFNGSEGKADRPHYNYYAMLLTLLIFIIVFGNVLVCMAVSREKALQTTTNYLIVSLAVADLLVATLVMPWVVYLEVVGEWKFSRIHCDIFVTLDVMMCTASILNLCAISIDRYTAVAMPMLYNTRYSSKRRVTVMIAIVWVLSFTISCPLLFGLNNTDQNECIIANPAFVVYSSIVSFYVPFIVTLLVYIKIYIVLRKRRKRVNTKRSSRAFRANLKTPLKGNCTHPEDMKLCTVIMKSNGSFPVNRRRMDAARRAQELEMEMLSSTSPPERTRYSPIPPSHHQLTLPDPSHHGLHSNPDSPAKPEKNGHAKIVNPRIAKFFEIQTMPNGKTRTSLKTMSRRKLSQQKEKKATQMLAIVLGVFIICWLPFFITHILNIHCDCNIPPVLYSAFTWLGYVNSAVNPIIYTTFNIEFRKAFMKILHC
T2 sequence (P18901 whole entry): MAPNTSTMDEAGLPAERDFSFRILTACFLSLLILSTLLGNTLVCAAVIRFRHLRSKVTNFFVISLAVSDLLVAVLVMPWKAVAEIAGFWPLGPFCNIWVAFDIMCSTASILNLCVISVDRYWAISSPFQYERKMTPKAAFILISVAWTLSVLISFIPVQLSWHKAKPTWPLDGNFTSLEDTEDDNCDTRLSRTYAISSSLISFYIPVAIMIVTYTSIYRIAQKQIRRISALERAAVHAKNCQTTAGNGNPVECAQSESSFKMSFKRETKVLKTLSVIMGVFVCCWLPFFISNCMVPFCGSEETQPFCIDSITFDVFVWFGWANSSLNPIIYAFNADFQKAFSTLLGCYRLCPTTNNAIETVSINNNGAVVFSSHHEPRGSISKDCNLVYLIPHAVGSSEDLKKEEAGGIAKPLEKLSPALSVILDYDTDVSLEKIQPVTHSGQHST

## O=c1[nH]c2ccccc2n1C1CCN(CCCC(c2ccc(F)cc2)c2ccc(F)cc2)CC1 [Pimozide, pimozide]
BxPC-3 cells [1]; Homo sapiens, BXPC-3, 24 h
  IC50: 21.7 ± 2.27 µM
BxPC-3 cells [1]; Homo sapiens, BXPC-3, 48 h
  IC50: 16.1 ± 0.94 µM
BxPC-3 cells [1]; Homo sapiens, BXPC-3, 72 h
  IC50: 17.8 ± 1.38 µM
Capan-1 cells; Homo sapiens, CAPAN-1, 24 h
  IC50: 25.3 ± 3.11 µM
Capan-1 cells; Homo sapiens, CAPAN-1, 48 h
  IC50: 20.7 ± 1.3 µM
Capan-1 cells; Homo sapiens, CAPAN-1, 72 h
  IC50: 20 ± 1.79 µM
PANC-1 cells; Homo sapiens, PANC-1, 24 h
  IC50: 15.1 ± 1.51 µM
PANC-1 cells; Homo sapiens, PANC-1, 48 h
  IC50: 17 ± 1.08 µM
PANC-1 cells; Homo sapiens, PANC-1, 72 h
  IC50: 20.3 ± 2.02 µM
[2]; [10]
  IC50: 38.7 ± 1.37 µM
[2]; [11]
  IC50: 28.7 ± 3.82 µM
[2]; [12]
  IC50: 23.6 ± 0.92 µM
[3]
  effect on cell migration: decreased with the increasing concentration

## Cc1nc2n(c(=O)c1CCN1CCC(c3noc4cc(F)ccc34)CC1)CCCC2 [Risperidone]
[2]
  effect on cell viability: no effect
[4]
  decrease in cell viability: up to 20%

## NCCc1ccc(O)c(O)c1 [Dopamine]
BxPC-3 cells [1]; Homo sapiens, BXPC-3, 24 h
  IC50: > 60 µM
BxPC-3 cells [1]; Homo sapiens, BXPC-3, 48 h
  IC50: > 60 µM
BxPC-3 cells [1]; Homo sapiens, BXPC-3, 72 h
  IC50: > 60 µM
Capan-1 cells; Homo sapiens, CAPAN-1, 24 h
  IC50: > 60 µM
Capan-1 cells; Homo sapiens, CAPAN-1, 48 h
  IC50: > 60 µM
Capan-1 cells; Homo sapiens, CAPAN-1, 72 h
  IC50: > 60 µM
PANC-1 cells; Homo sapiens, PANC-1, 24 h
  IC50: > 60 µM
PANC-1 cells; Homo sapiens, PANC-1, 48 h
  IC50: > 60 µM
PANC-1 cells; Homo sapiens, PANC-1, 72 h
  IC50: > 60 µM
[2]; [10]
  IC50: > 60 µM
[2]; [11]
  IC50: > 60 µM
[2]; [12]
  IC50: > 60 µM
[4]; all tested cells
  effect on cell viability: increase in cell viability
[3]
  effect on cell migration: did not significantly increase

## Nc1ccn([C@@H]2O[C@H](CO)[C@@H](O)C2(F)F)c(=O)n1 [Gemcitabine, gemcitabine]
BxPC-3 cells [1]; Homo sapiens, BXPC-3, 24 h
  IC50: > 60 µM
BxPC-3 cells [1]; Homo sapiens, BXPC-3, 48 h
  IC50: 0.643 ± 0.05 µM
BxPC-3 cells [1]; Homo sapiens, BXPC-3, 72 h
  IC50: 0.296 ± 0.15 µM
Capan-1 cells; Homo sapiens, CAPAN-1, 24 h
  IC50: > 60 µM
Capan-1 cells; Homo sapiens, CAPAN-1, 72 h
  IC50: 0.657 ± 0.13 µM
PANC-1 cells; Homo sapiens, PANC-1, 24 h
  IC50: > 60 µM
PANC-1 cells; Homo sapiens, PANC-1, 72 h
  IC50: 0.28 ± 0.031 µM
[2]; [10]
  IC50: > 60 µM
[2]; [12]
  IC50: 1.28 ± 0.1 µM
[3]
  effect on cell migration: slower migration with increasing concentration

## CSCC[C@H](NC(=O)[C@H](Cc1ccccc1)NC(=O)[C@H](Cc1c[nH]cn1)NC(=O)CNC(=O)[C@@H](NC(=O)[C@H](C)NC(=O)[C@H](Cc1c[nH]c2ccccc12)NC(=O)[C@H](CCC(N)=O)NC(=O)[C@@H]1CCCN1C(=O)[C@@H](NC(=O)[C@@H]1CCC(=O)N1)C(C)C)C(C)C)C(N)=O [Ranatensin] ([pGlu]VPQWAVGHFM-NH2)
DRD2 [5]; rat brain membranes
  IC50: 0.0127 µM
DRD2 [5]; rat spinal cord homogenates
  IC50: 0.0488 ± 0.00115 µM
DRD2 [6]; conclusion from binding and [35S]GTPγS assays
  functional character at DRD2: DRD2 agonist
DRD2 [6]; rat brain membrane homogenates
  maximal G-protein efficacy (Emax): 124.1%
  EC50: 0.0184 µM
DRD2 [6]; rat brain, basal = 100%
  Emax in presence of selective DRD2 antagonist risperidone: 101.5%
DRD2 [6]; [13]
  maximal G-protein efficacy (Emax): 119.8%
  EC50: 0.78 µM
DRD2 [6]; rat spinal cord membranes, basal = 100%
  Emax in presence of selective DRD1 antagonist SCH-39166: 117.4%
DRD2 [6]; rat spinal cord, basal = 100%
  Emax in presence of selective DRD2 antagonist risperidone: 100.0%
BxPC-3 cells [1]; BxPC-3, 48 h
  IC50: > 60 µM
BxPC-3 cells [1]; BxPC-3, 72 h
  IC50: > 60 µM
Capan-1 cells; Capan-1, 48 h
  IC50: > 60 µM
Capan-1 cells; Capan-1, 72 h
  IC50: > 60 µM
Capan-1 cells; Capan-1, RAN only, 24 h
  decrease in viability compared to the control: around 20%
PANC-1 cells; PANC-1, 48 h
  IC50: > 60 µM
PANC-1 cells; PANC-1, 72 h
  IC50: > 60 µM
PANC-1 cells; PANC-1, prolonged incubation (48 and 72 h)
  effect on cell viability: significant increase in PANC-1 cell viability
[2]; NHF, 48 h
  IC50: > 60 µM
[2]; NHF, 72 h
  IC50: > 60 µM
[2]; NHF, longer exposure (48 and 72 h)
  effect on cell viability: reduction in fibroblast viability compared to untreated cells
[4]; cancer cells, 24 h
  effect on cell viability: lower viability compared to the untreated cells
BxPC-3 cells [7]
  concentration with total wound closure: ≥ 20 µM
[3]; PANC-1 and BxPC-3, risperidone pretreated, 24 h
  migration rate of DRD2-blocked cells: slower in comparison to cells treated with RAN alone
[3]
  effect on cell migration: migrated at a similar rate to untreated cells
DRD1 [8]
  IC50: > 10 µM
GRP-Rs
  affinity for GRP-Rs: equal affinity for GRP-Rs to GRP itself
DRD1 [9]
  IC50: > 10 µM
